Reference: patent US8822691B2, “Pesticidal carboxamides” (Bayer CropScience AG, priority 2009, dated 2014)

Experiments:
Format in all cases: in vivo
Spodoptera litura = assay: Test against tobacco cutworm (Spodoptera litura) larvae, leaf dip; conditions: active compound concentration of 100 ppm, third instar larvae on sweet potato leaves, after 7 days; for pest or weed control at 100 ppm: foliar, 168 h, read-out: insecticidal activity
Tetranychus urticae = assay: Test against two-spotted spider mite (Tetranychus urticae), spray; conditions: active compound concentration of 500 ppm, adult mites on kidney bean, after 7 days; for pest or weed control at 500 ppm: Tetranychus urticae, 168 h, read-out: acaricidal activity
Procedure: Unless not mentioned otherwise, the test solutions were prepared as follows:
Containing as solvent: Dimethylformamide, 3 parts by weight; and as emulsifier: Polyoxyethylene alkyl phenyl ether, 1 part by weight
To prepare the test solution, 1 part by weight of an active compound is mixed with the above-mentioned amount of solvent containing the above-mentioned amount of emulsifier, and the mixture is diluted with water to the desired concentration.
50 to 100 adult mites of Tetranychus urticae were inoculated to leaves of kidney bean at two-leaf stage planted in a pot of 6 cm in diameter. After one day, test solution at the appropriate concentration was sprayed thereon in a sufficient amount using a spray gun. After the spraying, the plant pot was placed inside a greenhouse, and after 7 days, the acaricidal activity was calculated. An acaricidal activity of 100% means that all mites were killed, whereas an acaricidal activity of 0% means that no mite was killed.

Aulacophora femoralis = assay: Test against cucurbit leaf beetle (Aulacophora femoralis), leaf dip; conditions: active compound concentration of 500 ppm, second instar larvae on cucumber leaves, after 7 days; for pest or weed control at 500 ppm: Aulacophora, foliar, 168 h, read-out: insecticidal activity
Procedure, shortened: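 Cucumber leaves dipped in compound solution (DMF/polyoxyethylene alkyl phenyl ether formulation diluted in water), air-dried and given five second-instar larvae on sterilized soil at 25 °C. Dead larvae counted after 7 days and expressed as % insecticidal activity.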

Lucilia cuprina = Lucilia cuprina (48 h) larval test; conditions: Lucilia cuprina, 48 h, read-out: activity (larval mortality)
Procedure: Species: Lucilia cuprina 1st instar larvae (age 24 hrs)
(§1) Solvent: dimethyl sulfoxide
10 mg active compound are dissolve in 0.5 ml dimethyl sulfoxide. Serial dilutions are made to obtain the desired rates. Approximately 20 Lucilia cuprina 1st instar larvae are transferred into a test tube containing 1 cm^3 of minced horse meat and 0.5 ml aqueous dilution of test compound. After 48 hrs percentage of larval mortality are recorded. 100% efficacy all larvae are killed, % efficacy normally developed larvae after 48 hrs.

Ctenocephalides felis = assay: Ctenocephalides felis-test (CTECFE); conditions: Ctenocephalides felis, in Bos taurus, 48 h, read-out: activity (mortality), application rate of 100 ppm in cattle blood; adult unfed fleas; after 2 days
Procedure: as §1
To produce a suitable preparation of active compound, 10 mg of active compound are dissolved in 0.5 ml solvent, and the concentrate is diluted with cattle blood to the desired concentration. Approximately 20 adult unfed (Ctenocepahlides felis) are placed in flea chambers. The blood chamber, sealed with parafilm on the bottom, are filled with cattle blood supplied with compound solution and placed on top of the flea chamber, so that the fleas are able to suck the blood. The blood chamber is heated to 37° C. whereas the flea chamber is kept at room temperature. After 2 days mortality in % is determined. 100% means that all the fleas have been killed; 0% means that none of the fleas have been killed.

Boophilus microplus [1] = assay: Boophilus microplus-test (injection); conditions: Rhipicephalus microplus, 168 h, read-out: activity (mortality in %; 100% means that all eggs are infertile)
Procedure: as §1
To produce a suitable preparation of active compound, 10 mg of active compound are dissolved in 0.5 ml solvent, and the concentrate is diluted with solvent to the desired concentration. Five adult engorged female ticks (Boophilus microplus) are injected with 1 μl compound solution into the abdomen. Ticks are transferred into replica plates and incubated in a climate chamber for a period of time. Egg deposition of fertile eggs is monitored.
After 7 days mortality in % is determined. 100% means that all eggs are infertile; 0% means that all eggs are fertile.

Boophilus microplus [2] = assay: Boophilus microplus (dip); conditions: for mortality at 100 ppm: Rhipicephalus microplus, 168 h, read-out: activity (mortality)
Procedure: Solvent: Dimethylsulfoxid
To produce a suitable preparation of active compound, 10 mg of active compound are dissolved in 0.5 ml solvent, and the concentrate is diluted with water to the desired concentration. Eight to ten adult engorged female Boophilus microplus ticks are placed in perforated plastic beakers and immersed in aqueous compound solution for one minute. Ticks are transferred to a filter paper in a plastic tray. Egg deposition of fertile eggs is monitored after. After 7 days mortality in % is determined. 100% means that all the ticks have been killed; 0% means that none of the ticks have been killed.

Musca domestica = assay: Musca domestica-test; conditions: Musca domestica, 48 h, read-out: activity (mortality)
Procedure: as §1
To produce a suitable preparation of active compound, 10 mg of active compound are dissolved in 0.5 ml solvent, and the concentrate is diluted with water to the desired concentration. Prior to the assay, a piece of kitchen sponge is soaked with a mixture of sugar and compound solution and placed into a container. 10 adults (Musca domestica) are placed into the container and closed with a perforated lid. After 2 days mortality in % is determined. 100% means that all the flies have been killed; 0% means that none of the flies have been killed.

Structure (SMILES) | pest or weed control at 100 ppm (Spodoptera litura) [%] | pest or weed control at 500 ppm (Tetranychus urticae) [%] | pest or weed control at 500 ppm (Aulacophora femoralis) [%] | mortality at 100 ppm (Lucilia cuprina) [%] | mortality at 100 ppm (Ctenocephalides felis) [%] | mortality at 0.02 mg (Boophilus microplus [1]) [%] | mortality at 100 ppm (Boophilus microplus [2]) [%] | mortality at 100 ppm (Musca domestica) [%] | insecticidal activity (Spodoptera litura) [%] | acaricidal activity (Tetranychus urticae) [%] | insecticidal activity (Aulacophora femoralis) [%] | activity (mortality) (Boophilus microplus [2]; application rate of 100 ppm, dip of adult engorged female ticks for one minute, after 7 days) [%]
N#Cc1ccc2cc(C(=O)Nc3c(Br)cc(C(F)(C(F)(F)F)C(F)(F)Br)cc3OC(F)F)ccc2n1 (centres unmarked) [Compound No. 2-203, N-[2-bromo-4-(1-bromo-1,1,2,3,3,3-hexafluoropropan-2-yl)-6-(difluoromethoxy)phenyl]-2-cyanoquinoline-6-carboxamide] | 100 | 100 | 100 | 100 | 100 | 100 | 100 | 100 | – | – | – | –
N#Cc1ccc2cc(C(=O)Nc3c(I)cc(C(F)(C(F)(F)F)C(F)(F)F)cc3I)ccc2n1 [2-69] | – | – | – | – | – | – | – | – | 100 | 100 | 100 | 100
N#Cc1ccc2cc(C(=O)Nc3c(Br)cc(C(F)(C(F)(F)F)C(F)(F)F)cc3OC(F)F)ccc2n1 [Compound No. 2-154, N-[2-bromo-6-(difluoromethoxy)-4-(1,1,1,2,3,3,3-heptafluoropropan-2-yl)phenyl]-2-cyanoquinoline-6-carboxamide] | 100 | 100 | 100 | – | – | – | 90 | – | – | – | – | –
O=C(Nc1c(Br)cc(C(F)(C(F)(F)F)C(F)(F)Br)cc1OC(F)F)c1ccc2ncccc2c1 (centres unmarked) [Compound No. 2-201, N-[2-bromo-4-(1-bromo-1,1,2,3,3,3-hexafluoropropan-2-yl)-6-(difluoromethoxy)phenyl]quinoline-6-carboxamide] | 100 | 100 | 100 | 100 | 100 | 100 | – | 100 | – | – | – | –
N#Cc1ccc2cc(C(=O)Nc3c(I)cc(C(F)(C(F)(F)F)C(F)(F)C(F)(F)F)cc3OC(F)F)ccc2n1 (centres unmarked) [Compound No. 2-176, 2-cyano-N-[2-(difluoromethoxy)-6-iodo-4-(1,1,1,2,3,3,4,4,4-nonafluorobutan-2-yl)phenyl]quinoline-6-carboxamide] | 100 | 100 | 100 | 100 | 90 | 100 | 100 | 100 | – | – | – | –
N#Cc1ccc2cc(C(=O)Nc3c(Br)cc(C(F)(C(F)(F)F)C(F)(F)C(F)(F)F)cc3OC(F)F)ccc2n1 (centres unmarked) [Compound No. 2-173, N-[2-bromo-6-(difluoromethoxy)-4-(1,1,1,2,3,3,4,4,4-nonafluorobutan-2-yl)phenyl]-2-cyanoquinoline-6-carboxamide] | 100 | 100 | 100 | – | – | – | 100 | – | – | – | – | –
